Target: neutrophil elastase (Homo sapiens (Human), UniProt P08246)
Test: biochemical
Assay type: biochemical
Settings: IC50
Experimental: Human Neutrophil Elastase Assay
All other materials were of the highest grade commercially available.
The following buffers were used: Compound buffer: 100 mM Tris, 500 mM NaCl, adjusted to pH 7.5; Assay buffer: 100 mM Tris, 500 mM NaCl, adjusted to pH 7.5, containing 0.01% BSA.
Assay conditions: Test compounds were prediluted in DMSO and subsequently in compound buffer (5% DMSO final). […] After inactivation of the enzyme, fluorescence intensities were measured at 380 nm excitation and 460 nm emission wavelengths.
Each plate contains wells with a high value control (DMSO+enzyme+substrate) and wells with a low value control (DMSO+inactivated enzyme+substrate). IC50 values were estimated using a sigmoidal concentration response curve with variable slope. Means of low values were taken as 0%, means of high values as 100%.

Chain of neutrophil elastase (P08246 whole entry, looked up): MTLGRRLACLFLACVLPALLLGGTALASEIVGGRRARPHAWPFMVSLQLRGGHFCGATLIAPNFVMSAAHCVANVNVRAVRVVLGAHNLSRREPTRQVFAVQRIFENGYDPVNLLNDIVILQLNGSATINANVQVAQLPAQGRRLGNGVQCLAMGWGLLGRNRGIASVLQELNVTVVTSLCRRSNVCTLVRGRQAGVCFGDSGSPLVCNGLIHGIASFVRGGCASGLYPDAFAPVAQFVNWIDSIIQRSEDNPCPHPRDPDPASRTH

Compound | IC50 [nM]
CCNC(=O)N1C(=O)N(c2ccnc(C(F)(F)F)c2)C2=C(C(=O)CC2)C1c1ccc(C#N)cc1S(=O)(=O)CC (racemic) [Example D.4.1, 4-(4-cyano-2-ethanesulfonyl-phenyl)-2,5-dioxo-1-(2-trifluoromethyl-pyridin-4-yl)-1,2,4,5,6,7-hexahydro-cyclopentapyrimidine-3-carboxylic acid ethylamide] | < 1
CN1C(=O)N(c2cccc(C(F)(F)F)c2)C2=C(C(=O)CC2)C1c1ccc(C#N)cc1CO (single isomer, unassigned) [Example A.1B, 3-Hydroxymethyl-4-[3-methyl-2,5-dioxo-1-(3-trifluoromethyl-phenyl)-2,3,4,5,6,7-hexahydro-1H-cyclopentapyrimidin-4-yl]-benzonitrile] | 2780
CCS(=O)(=O)c1cc(C#N)ccc1C1C2=C(CCC2=O)N(c2ccnc(C(F)(F)F)c2)C(=O)N1C (single isomer, unassigned) [Example D.3A, 3-Ethanesulfonyl-4-[3-methyl-2,5-dioxo-1-(2-trifluoromethyl-pyridin-4-yl)-2,3,4,5,6,7-hexahydro-1H-cyclopentapyrimidin-4-yl]-benzonitrile] | 2810
CCS(=O)(=O)c1cc(C#N)ccc1C1NC(=O)N(c2cccc(C(F)F)c2)C2=C1C(=O)CC2 (single isomer, unassigned) [Example D.5B, 4-[1-(3-Difluoromethyl-phenyl)-2,5-dioxo-2,3,4,5,6,7-hexahydro-1H-cyclopentapyrimidin-4-yl]-3-ethanesulfonyl-benzonitrile] | 892

Same assay, conditions: IC50, Neutrophil Elastase assay, substrate MeOSuc-Ala-Ala-Pro-Val-AMC

Compound | IC50 [nM]
CN1C(=O)N(c2cccc(C(F)(F)F)c2)C2=C(C(=O)CC2)C1c1ccc(C#N)cc1S(=O)(=O)CCO (single isomer, unassigned) [Example B.1.2A] | 224

Same assay, conditions: Neutrophil Elastase assay, substrate MeOSuc-Ala-Ala-Pro-Val-AMC; read-out: IC50

Compound | IC50 [nM]
CCNC(=O)N1C(=O)N(c2ccnc(C(F)(F)F)c2)C2=C(C(=O)CC2)C1c1ccc(C#N)cc1S(C)(=O)=O (single isomer, unassigned) [D.4.10] | < 1
CN1C(=O)N(c2cccc(C(F)(F)F)c2)C2=C(C(=O)CC2)C1c1ccc(C#N)cc1[S+](C)[O-] (single isomer, unassigned) [Example C.1A, 3-Methanesulfinyl-4-[3-methyl-2,5-dioxo-1-(3-trifluoromethyl-phenyl)-2,3,4,5,6,7-hexahydro-1H-cyclopentapyrimidin-4-yl]-benzonitrile] | 1820
CN1C(=O)N(c2cccc(C(F)(F)F)c2)C2=C(C(=O)CC2)C1c1ccc(C#N)cc1[S+](C)[O-] (single isomer, unassigned) [Example C.2B, 3-Methanesulfinyl-4-[3-methyl-2,5-dioxo-1-(3-trifluoromethyl-phenyl)-2,3,4,5,6,7-hexahydro-1H-cyclopentapyrimidin-4-yl]-benzonitrile] | 13
CCNC(=O)N1C(=O)N(c2ccnc(C(F)(F)F)c2)C2=C(C(=O)CC2)C1c1ccc(C#N)cc1S(=O)(=O)CC (single isomer, unassigned) [Example D.4.1B, 4-(4-cyano-2-ethanesulfonyl-phenyl)-2,5-dioxo-1-(2-trifluoromethyl-pyridin-4-yl)-1,2,4,5,6,7-hexahydro-cyclopentapyrimidine-3-carboxylic acid ethylamide] | 338
COCCS(=O)(=O)c1cc(C#N)ccc1C1NC(=O)N(c2cccc(C(F)(F)F)c2)C2=C1C(=O)CC2 (centres unmarked) [B.1.1] | 5.7
COCCS(=O)(=O)c1cc(C#N)ccc1C1C2=C(CCC2=O)N(c2cccc(C(F)(F)F)c2)C(=O)N1C (centres unmarked) [B.1.4] | < 1
CS(=O)(=O)c1cc(C#N)ccc1C1NC(=O)N(c2cncc(C(F)(F)F)c2)C2=C1C(=O)CC2 (centres unmarked) [D.2.1] | 60
CS(=O)(=O)c1cc(C#N)ccc1C1NC(=O)N(c2cc(C(F)(F)F)ccn2)C2=C1C(=O)CC2 (centres unmarked) [D.2.2] | 65
CS(=O)(=O)c1cc(C#N)ccc1C1NC(=O)N(c2cncc(Br)c2)C2=C1C(=O)CC2 (centres unmarked) [D.2.3] | 101
CS(=O)(=O)c1cc(C#N)ccc1C1NC(=O)N(c2cncc(Cl)c2)C2=C1C(=O)CC2 (centres unmarked) [D.2.4] | 103
CN1C(=O)N(c2cncc(C(F)(F)F)c2)C2=C(C(=O)CC2)C1c1ccc(C#N)cc1S(C)(=O)=O (centres unmarked) [D.3.1] | 8.8
CN1C(=O)N(c2cncc(Br)c2)C2=C(C(=O)CC2)C1c1ccc(C#N)cc1S(C)(=O)=O (centres unmarked) [D.3.3] | 13
CN1C(=O)N(c2cncc(Cl)c2)C2=C(C(=O)CC2)C1c1ccc(C#N)cc1S(C)(=O)=O (centres unmarked) [D.3.4] | 8.1
CNC(=O)N1C(=O)N(c2cncc(C(F)(F)F)c2)C2=C(C(=O)CC2)C1c1ccc(C#N)cc1S(C)(=O)=O (centres unmarked) [D.4.2] | < 1
CCNC(=O)N1C(=O)N(c2cncc(C(F)(F)F)c2)C2=C(C(=O)CC2)C1c1ccc(C#N)cc1S(C)(=O)=O (centres unmarked) [D.4.3] | < 1
CNC(=O)N1C(=O)N(c2cncc(Br)c2)C2=C(C(=O)CC2)C1c1ccc(C#N)cc1S(C)(=O)=O (centres unmarked) [D.4.6] | 1.2
CCNC(=O)N1C(=O)N(c2cncc(Br)c2)C2=C(C(=O)CC2)C1c1ccc(C#N)cc1S(C)(=O)=O (centres unmarked) [D.4.7] | < 1

Same assay, conditions: read-out: IC50

Compound | IC50 [nM]
CCS(=O)(=O)c1cc(C#N)ccc1C1C2=C(CCC2=O)N(c2ccnc(C(F)(F)F)c2)C(=O)N1C (racemic) [Example D.3, 3-Ethanesulfonyl-4-[3-methyl-2,5-dioxo-1-(2-trifluoromethyl-pyridin-4-yl)-2,3,4,5,6,7-hexahydro-1H-cyclopentapyrimidin-4-yl]-benzonitrile] | 4
CCS(=O)(=O)c1cc(C#N)ccc1C1NC(=O)N(c2cccc(C(F)F)c2)C2=C1C(=O)CC2 (racemic) [Example D.5, 4-[1-(3-Difluoromethyl-phenyl)-2,5-dioxo-2,3,4,5,6,7-hexahydro-1H-cyclopentapyrimidin-4-yl]-3-ethanesulfonyl-benzonitrile] | 5.5
CC[S+]([O-])c1cc(C#N)ccc1C1NC(=O)N(c2cccc(C(F)(F)F)c2)C2=C1C(=O)CC2 (single isomer, unassigned) [Example C.4.1, 4-[2,5-Dioxo-1-(3-trifluoromethyl-phenyl)-2,3,4,5,6,7-hexahydro-1H-cyclopentapyrimidin-4-yl]-3-ethanesulfinyl-benzonitrile] | 5.2
CC[S+]([O-])c1cc(C#N)ccc1C1NC(=O)N(c2cccc(C(F)(F)F)c2)C2=C1C(=O)CC2 (single isomer, unassigned) [Example C.4.2, 4-[2,5-Dioxo-1-(3-trifluoromethyl-phenyl)-2,3,4,5,6,7-hexahydro-1H-cyclopentapyrimidin-4-yl]-3-ethanesulfinyl-benzonitrile] | 8.9
CC[S+]([O-])c1cc(C#N)ccc1C1C2=C(CCC2=O)N(c2cccc(C(F)(F)F)c2)C(=O)N1C(=O)NC (single isomer, unassigned) [Example C.6.1, 4-(4-Cyano-2-ethanesulfinyl-phenyl)-2,5-dioxo-1-(3-trifluoromethyl-phenyl)-1,2,4,5,6,7-hexahydro-cyclopentapyrimidine-3-carboxylic acid methylamide] | < 1
CC[S+]([O-])c1cc(C#N)ccc1C1C2=C(CCC2=O)N(c2cccc(C(F)(F)F)c2)C(=O)N1C(=O)NC (single isomer, unassigned) [Example C.6.2, 4-(4-Cyano-2-ethanesulfinyl-phenyl)-2,5-dioxo-1-(3-trifluoromethyl-phenyl)-1,2,4,5,6,7-hexahydro-cyclopentapyrimidine-3-carboxylic acid methylamide] | < 1
CN1C(=O)N(c2cc(C(F)(F)F)ccn2)C2=C(C(=O)CC2)C1c1ccc(C#N)cc1S(C)(=O)=O (centres unmarked) [D.3.2] | 9.5

From patent US9475779B2, “Substituted bicyclic dihydropyrimidinones and their use as inhibitors of neutrophil elastase activity” (priority 2014, dated 2016)
